Key:
Test in all cases: relative viability (nuclei count vs DMSO), 5 days (fraction); higher = more cells survive
BAY61-3606 + Tozasertib = compound: COC1=C(C=C(C=C1)C2=CC3=NC=CN3C(=N2)NC4=C(C=CC=N4)C(=O)N)OC [BAY61-3606] + Cc1cc(Nc2cc(N3CCN(C)CC3)nc(Sc3ccc(NC(=O)C4CC4)cc3)n2)n[nH]1 [Tozasertib] (partner 0.1 µM)
Procedure, shortened: (§1)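 One day after seeding in 1536-well plates, lung cancer cell lines were dosed by pin tool. Dosing was either single-drug or a fixed anchor-drug dose plus five library-drug doses (not always all listed) in √10 steps. After 5 days, nuclei were stained in one fix-and-stain step and counted on 4× images, and relative viability is the nuclei count of treated wells over that of vehicle wells, given as the median of duplicate plates.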

Doxorubicin + Crizotinib = compound: COc1cccc2c1C(=O)c1c(O)c3c(c(O)c1C2=O)C[C@@](O)(C(=O)CO)C[C@@H]3O[C@H]1C[C@H](N)[C@H](O)[C@H](C)O1 [Doxorubicin] + C[C@@H](Oc1cc(-c2cnn(C3CCNCC3)c2)cnc1N)c1c(Cl)ccc(F)c1Cl [Crizotinib] (partner 1 µM)
Procedure, shortened: as §1

Doxorubicin + Navitoclax = compound: COc1cccc2c1C(=O)c1c(O)c3c(c(O)c1C2=O)C[C@@](O)(C(=O)CO)C[C@@H]3O[C@H]1C[C@H](N)[C@H](O)[C@H](C)O1 [Doxorubicin] + CC1(C)CCC(c2ccc(Cl)cc2)=C(CN2CCN(c3ccc(C(=O)NS(=O)(=O)c4ccc(N[C@H](CCN5CCOCC5)CSc5ccccc5)c(S(=O)(=O)C(F)(F)F)c4)cc3)CC2)C1 [Navitoclax] (partner 0.5 µM)
Procedure, shortened: as §1

Doxorubicin + Pemetrexed = compound: COc1cccc2c1C(=O)c1c(O)c3c(c(O)c1C2=O)C[C@@](O)(C(=O)CO)C[C@@H]3O[C@H]1C[C@H](N)[C@H](O)[C@H](C)O1 [Doxorubicin] + Nc1nc2[nH]cc(CCc3ccc(C(=O)N[C@@H](CCC(=O)O)C(=O)O)cc3)c2c(=O)[nH]1 [Pemetrexed] (partner 0.2 µM)
Procedure, shortened: as §1

Cell Line | relative viability (BAY61-3606 + Tozasertib; first compound 0.02 µM) | relative viability (BAY61-3606 + Tozasertib; first compound 0.06325 µM) | relative viability (BAY61-3606 + Tozasertib; first compound 0.2 µM) | relative viability (BAY61-3606 + Tozasertib; first compound 0.6325 µM) | relative viability (BAY61-3606 + Tozasertib; first compound 2 µM) | relative viability (Doxorubicin + Crizotinib; first compound 0.001 µM) | relative viability (Doxorubicin + Crizotinib; first compound 0.003162 µM) | relative viability (Doxorubicin + Crizotinib; first compound 0.01 µM) | relative viability (Doxorubicin + Crizotinib; first compound 0.03162 µM) | relative viability (Doxorubicin + Crizotinib; first compound 0.1 µM) | relative viability (Doxorubicin + Navitoclax; first compound 0.001 µM) | relative viability (Doxorubicin + Navitoclax; first compound 0.003162 µM) | relative viability (Doxorubicin + Navitoclax; first compound 0.01 µM) | relative viability (Doxorubicin + Navitoclax; first compound 0.03162 µM) | relative viability (Doxorubicin + Navitoclax; first compound 0.1 µM) | relative viability (Doxorubicin + Pemetrexed; first compound 0.001 µM) | relative viability (Doxorubicin + Pemetrexed; first compound 0.003162 µM) | relative viability (Doxorubicin + Pemetrexed; first compound 0.01 µM) | relative viability (Doxorubicin + Pemetrexed; first compound 0.03162 µM) | relative viability (Doxorubicin + Pemetrexed; first compound 0.1 µM)
HCC-78 | 0.499 | 0.317 | 0.312 | 0.415 | 0.28 | 0.356 | 0.332 | 0.395 | 0.352 | 0.28 | 0.41 | 0.689 | 0.753 | 0.692 | 0.768 | 0.946 | 0.889 | 0.927 | 0.909 | 0.888
HOP-62 | 0.323 | 0.224 | 0.297 | 0.286 | 0.144 | 1.04 | 1.02 | 0.956 | 0.901 | 1.01 | 1.06 | 0.927 | 0.988 | 0.944 | 1.01 | 0.356 | 0.34 | 0.302 | 0.25 | 0.349
NCI-H1623 | 0.485 | 0.439 | 0.458 | 0.394 | 0.328 | – | – | – | – | – | – | – | – | – | – | – | – | – | – | –
NCI-H3122 | 0.456 | 0.262 | 0.377 | 0.438 | 0.305 | 0.247 | 0.302 | 0.295 | 0.257 | 0.282 | 1.05 | 1.01 | 0.973 | 1.02 | 1.02 | 0.203 | 0.208 | 0.334 | 0.194 | 0.174
NCI-H1666 | 0.6 | 0.572 | 0.492 | 0.473 | 0.458 | 1.02 | 0.915 | 0.608 | 0.295 | 0.285 | 0.882 | 0.953 | 0.55 | 0.282 | 0.275 | – | 0.858 | 0.724 | 0.782 | 0.757
HARA | 0.144 | 0.13 | 0.11 | 0.123 | 0.0865 | 1.04 | 1.04 | 1.03 | 1.01 | 0.959 | 1.17 | 1.09 | 1.18 | 1.05 | 1.15 | 0.22 | 0.257 | 0.338 | 0.259 | 0.268
NCI-H1651 | 0.726 | 0.488 | 0.503 | 0.55 | 0.356 | 0.934 | 0.929 | 0.855 | 0.836 | 0.871 | 0.991 | 1.19 | 0.801 | 0.436 | 0.204 | 0.591 | 0.628 | 0.604 | 0.57 | 0.588
NCI-H1395 | 0.722 | 0.679 | 0.682 | 0.781 | 0.411 | – | – | – | – | – | 0.992 | 1 | 1.07 | 0.861 | 0.898 | 0.887 | 1.02 | 1.08 | 0.7 | 0.537
SK-LU-1 | 0.315 | 0.282 | 0.264 | 0.231 | 0.2 | 1.15 | 1.03 | 0.639 | 0.472 | 0.32 | 0.811 | 0.631 | 0.806 | 0.301 | 0.218 | 0.929 | 1.08 | 0.903 | 0.601 | 0.513

From the supplement of paper PMC10307832
